Active and inactive are the calls of the source.
Experiments:
[1] = target: FAD-linked sulfhydryl oxidase ALR (Homo sapiens, UniProt P55789); test: ALR-catalysed DTT oxidation blockers – biochemical, H2O2 detection, luminescence, cherry-pick, dose response (AID 493248)
[2] = Luminescence Cell-Based Dose Response HTS to Identify Activators of Luciferase Translation or Activity in H4 […] Cells. [Related pubchem assays: 1829 (Project Summary), 1814 (Primary HTS)]; format: functional
H4 = test: Luminescence Cell-Based Dose Response HTS to Identify Activators of 5'UTR Stem-Loop Driven Prion Protein mRNA Translation in H4 Neuroglioblastoma Cells. [Related pubchem assays: 1829 (Project Summary), 1814 (Primary HTS)]; format: functional; conditions: Homo sapiens
[3] = Luminescence Cell-Based Dose Confirmation HTS to Identify Activators of 5'UTR Stem-Loop Driven Alpha-Synuclein mRNA Translation in H4 Neuroglioblastoma Cells. [Related pubchem assays: 1829 (Project Summary), 1814 (Primary HTS)]; format: functional
[4] = Luminescence Cell-Based Dose Retest to Confirm Inhibitors of Cancer Stem Cells. [Related pubchem assays (depositor defined):AID2717, AID2721]; format: functional; conditions: Homo sapiens
[5] = P. falciparum Dd2 growth inhibitors, dose response, SYBR Green, cherry-picked samples (AID 1159567); format: functional, cell-based
[6] = target: T1, Short transient receptor potential channel 4 (Mus musculus, UniProt Q9QUQ5); test: block of DAMGO-driven TRPC4 calcium entry – cell-based, HEK293 TRPC4/mu-opioid, Fluo-4 calcium, dose response (AID 434942); format: functional;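 note: potency of inhibitors blocking the TRPC4 calcium response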
T1 sequence (Q9QUQ5 whole entry): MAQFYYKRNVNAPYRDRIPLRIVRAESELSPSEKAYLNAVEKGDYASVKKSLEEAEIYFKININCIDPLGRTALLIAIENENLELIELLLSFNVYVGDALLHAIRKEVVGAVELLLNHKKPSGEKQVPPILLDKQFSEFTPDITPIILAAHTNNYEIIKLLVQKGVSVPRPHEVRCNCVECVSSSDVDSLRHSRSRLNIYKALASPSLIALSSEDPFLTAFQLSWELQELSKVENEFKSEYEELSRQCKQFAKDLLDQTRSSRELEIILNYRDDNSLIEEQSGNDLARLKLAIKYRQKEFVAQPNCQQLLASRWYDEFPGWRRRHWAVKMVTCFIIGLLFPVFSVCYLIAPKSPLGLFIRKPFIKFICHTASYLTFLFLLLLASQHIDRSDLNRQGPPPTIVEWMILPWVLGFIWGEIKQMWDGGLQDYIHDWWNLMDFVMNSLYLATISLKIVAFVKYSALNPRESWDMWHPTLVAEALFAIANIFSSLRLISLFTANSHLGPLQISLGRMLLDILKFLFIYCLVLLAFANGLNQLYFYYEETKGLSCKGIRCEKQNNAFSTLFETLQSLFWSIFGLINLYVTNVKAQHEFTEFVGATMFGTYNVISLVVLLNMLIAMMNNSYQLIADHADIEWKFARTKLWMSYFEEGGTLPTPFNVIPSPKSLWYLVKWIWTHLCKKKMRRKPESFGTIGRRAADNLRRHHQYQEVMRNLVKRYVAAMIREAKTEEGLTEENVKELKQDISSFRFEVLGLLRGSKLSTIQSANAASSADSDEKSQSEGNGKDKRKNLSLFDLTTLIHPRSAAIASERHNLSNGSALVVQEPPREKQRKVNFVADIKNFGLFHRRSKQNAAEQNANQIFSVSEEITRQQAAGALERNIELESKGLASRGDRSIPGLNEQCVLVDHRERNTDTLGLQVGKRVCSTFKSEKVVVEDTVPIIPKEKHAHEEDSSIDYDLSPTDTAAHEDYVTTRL

[7] = blockers of HIV-1 envelope-mediated cell-cell fusion – cherry-pick, dose response (AID 652057); format: functional, cell-based
[8] = target: Luciferin 4-monooxygenase (Photinus pyralis, UniProt P08659); test: inhibition of purified Photinus pyralis luciferase – biochemical, luminescence, dose response (AID 1891)
Sequence of Luciferin 4-monooxygenase (P08659 whole entry): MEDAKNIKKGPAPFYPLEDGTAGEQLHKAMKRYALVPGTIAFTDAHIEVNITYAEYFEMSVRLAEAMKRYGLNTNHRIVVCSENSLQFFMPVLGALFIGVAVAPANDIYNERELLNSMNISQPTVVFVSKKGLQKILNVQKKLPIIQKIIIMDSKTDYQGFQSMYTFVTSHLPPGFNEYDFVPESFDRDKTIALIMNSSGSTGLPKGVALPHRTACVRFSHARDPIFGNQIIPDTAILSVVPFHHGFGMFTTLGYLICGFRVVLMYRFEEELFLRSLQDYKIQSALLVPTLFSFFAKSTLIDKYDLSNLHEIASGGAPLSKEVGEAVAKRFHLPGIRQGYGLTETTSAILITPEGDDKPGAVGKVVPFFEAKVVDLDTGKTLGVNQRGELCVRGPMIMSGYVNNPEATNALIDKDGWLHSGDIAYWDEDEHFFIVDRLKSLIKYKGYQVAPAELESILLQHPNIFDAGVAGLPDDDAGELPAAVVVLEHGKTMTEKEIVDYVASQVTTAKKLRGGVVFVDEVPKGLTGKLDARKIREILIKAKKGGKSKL

[9] = Luminescence Cell-Based Dose Confirmation HTS to Identify Inhibitors of Platelet Dense Granule Release. [Related pubchem assays: 1663 (Primary HTS), 1678 (Summary of Project)]; format: functional
Paired box protein Pax-8 = Paired box protein Pax-8 (Homo sapiens, UniProt Q06710); test: PAX8 transcriptional activity inhibition in RMG-I – RMG-I cells, luciferase, cherry-pick, dose response (AID 687027); format: functional, cell-based;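 note: luciferase reporter driven by Pax8 target thyroperoxidase promoter measured by SteadyGlo luminescence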
Sequence of Paired box protein Pax-8 (Q06710 whole entry): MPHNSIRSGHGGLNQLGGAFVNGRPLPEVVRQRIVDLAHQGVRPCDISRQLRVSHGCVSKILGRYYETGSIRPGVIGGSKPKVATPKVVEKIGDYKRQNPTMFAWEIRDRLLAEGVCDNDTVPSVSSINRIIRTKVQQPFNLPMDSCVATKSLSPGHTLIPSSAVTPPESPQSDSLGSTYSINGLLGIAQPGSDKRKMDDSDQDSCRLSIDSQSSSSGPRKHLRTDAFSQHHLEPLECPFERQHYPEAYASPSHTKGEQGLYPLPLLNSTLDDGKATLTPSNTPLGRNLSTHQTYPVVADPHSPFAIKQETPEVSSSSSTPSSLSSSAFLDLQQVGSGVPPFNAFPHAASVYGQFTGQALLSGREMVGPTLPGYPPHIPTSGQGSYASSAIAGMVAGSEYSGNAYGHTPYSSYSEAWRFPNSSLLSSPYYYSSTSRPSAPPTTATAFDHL

INS1 = test: INS-1E survival protection against cytokine death – cell-based, luminescence, retest, dose response (AID 449756); format: functional; conditions: Rattus norvegicus;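 note: cell death triggered by IL-1 beta plus TNF-alpha plus IFN-gamma mixture; protective hits raise ATP signal compared with cytokine alone wells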

Sequence of FAD-linked sulfhydryl oxidase ALR (P55789 whole entry): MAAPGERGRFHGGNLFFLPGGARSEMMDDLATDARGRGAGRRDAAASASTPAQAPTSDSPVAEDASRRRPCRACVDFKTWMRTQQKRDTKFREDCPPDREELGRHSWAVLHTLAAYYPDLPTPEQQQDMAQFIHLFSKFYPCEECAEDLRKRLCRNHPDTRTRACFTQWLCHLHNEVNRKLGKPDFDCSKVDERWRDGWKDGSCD

O=S(=O)(c1ccccc1)c1cc(O)ccc1O
AC50 [1]: 6.08 µM (active)

O=C(O)c1cccc(NC(=O)c2cc(-c3cccc(Cl)c3)nc3ccccc23)c1
AC50 [1]: 0.01 µM (active)

O=[N+]([O-])c1ccccc1N/N=C1\CCc2ccccc21
EC50 [2]: 0.268 µM (active) | EC50 (H4): 2.24 µM (active)

O=C(CCC(=O)c1cccs1)Nc1ccc(N2CCCCC2)cc1
AC50 [1]: 6.49 µM (active)

Cc1c(C(=O)Nc2ccccc2)sc2nc(-c3ccccc3)cn12
EC50 [3]: 4.41 µM (active) | EC50 [2]: 6.59 µM (active) | EC50 (H4): 44.2 µM (active)

Cc1ccc(C(=O)N/N=C\c2ccc(-c3ccc(Cl)c(Cl)c3)o2)cn1
AC50 [4]: 3.71 µM (active)

COc1cccc(CN2CC3(CN(Cc4ccccn4)C3)c3c([nH]c4cc(OC)ccc34)[C@@H]2CO)c1
AC50 [5]: 6.62 µM (active)

CC(=O)OCCCN1C(=O)c2cccc3cc(Br)cc(c23)C1=O
EC50 [6]: 0.211 µM (active)

C[C@H]1CN([C@@H](C)CO)C(=O)c2c(c3ccccc3n2C)-c2ccccc2CO[C@@H]1CN(C)Cc1ccc(Oc2ccccc2)cc1
AC50 [5]: 1.76 µM (active)

COc1ccc(C(CNC(=O)c2oc3ccc(F)cc3c2C)N2CCCCC2)cc1 (stereo not drawn)
EC50 [6]: 1.88 µM (active)

CSc1ncccc1C(=O)OCC(=O)Nc1ccc(C)c(S(=O)(=O)N2CCOCC2)c1
AC50 [7]: 53.2 µM (active)

Cc1nn(-c2nc3ccccc3n2Cc2ccccc2)c2c1C(=O)CC(C)(C)C2
EC50 [6]: 2.11 µM (active)

NC(=O)CC(NC(=O)Cc1cccc2ccccc12)c1ccc(N2CCc3ccccc3C2)c([N+](=O)[O-])c1 (stereo not drawn)
AC50 [4]: 12.2 µM (active)

CCc1cc2c(=O)c(-c3nc4ccccc4n3C)c(COCC(=O)O)oc2cc1O
EC50 [3]: > 120 µM (not active) | EC50 [2]: > 120 µM (not active) | EC50 (H4): > 120 µM (not active)

O=C(Nc1ccc2c(c1)OCCO2)NC12CC3CC(CC(C3)C1)C2
EC50 [3]: 5.22 µM (active) | EC50 [2]: 0.516 µM (active) | EC50 (H4): > 120 µM (not active)

CN1CCN(c2ccc(NC(=O)c3ccc(Cl)cc3)cn2)CC1
AC50 [4]: 19.8 µM (active)

CCS(=O)(=O)N1CCC2(CC1)CN(Cc1cc(F)ccc1F)[C@H](CO)c1c2c2ccc(OC)cc2n1C
AC50 [5]: 6.16 µM (active)

Cn1c(S)nnc1-c1cnn(-c2ccccc2)c1N
EC50 [8]: > 112 µM (not active) | EC50 [9]: 4.85 µM (active)

C[C@H]1CN([C@@H](C)CO)C(=O)c2c(c3ccccc3n2C)-c2ccccc2CO[C@@H]1CN(C)S(=O)(=O)c1ccc(C(F)(F)F)cc1
AC50 [5]: 4.6 µM (active)

C[C@@H]1CCCCO[C@H](CN(C)S(=O)(=O)c2ccc(Cl)cc2)[C@H](C)CN([C@@H](C)CO)C(=O)c2cc(NS(=O)(=O)c3ccc(F)cc3)ccc2O1
AC50 (Paired box protein Pax-8): 4.33 µM (active)

COc1cc(OC)cc(C(=O)Nc2ccc3c(c2)OCCO3)c1
EC50 [8]: 3.95 µM (active) | EC50 [9]: 6.36 µM (active)

Cc1cnc(C(=O)N2CCCC(C(=O)c3ccc(Cl)cc3C)C2)cn1 (stereo not drawn)
EC50 [8]: > 112 µM (not active) | EC50 [9]: > 112 µM (not active)

CSc1nc2nccc(/C=C\c3ccccc3)n2n1
EC50 [3]: > 120 µM (not active) | EC50 [2]: > 120 µM (not active) | EC50 (H4): > 120 µM (not active)

COc1ccccc1NC(=O)c1cc(O)nc2ccccc12
AC50 [1]: 0.202 µM (active)

COc1cc(-c2nc(-c3ccc(NC(=O)c4ccc(Br)o4)cc3)no2)cc(OC)c1OC
AC50 [4]: 0.725 µM (active)

CCCCCC(=O)Nc1nc(C)c(-c2csc(Nc3cc(OC)ccc3OC)n2)s1
AC50 [4]: 1.29 µM (active)

CCOC(=O)CSc1nc2c(sc(=S)n2-c2ccccc2OC)c(=O)n1-c1ccccc1OC
EC50 [6]: 2.37 µM (active)

Clc1ccc2c(c1)-c1nnc(Br)n1-c1ccccc1S2
EC50 [6]: 5.96 µM (active)

Oc1ccc(Cc2ccccc2)c2cccnc12
AC50 (Paired box protein Pax-8): 4.48 µM (active)

COC(=O)C1(Cc2cc(-c3ccccc3)no2)CCN(C(=O)OC(C)(C)C)CC1
EC50 [3]: 9.17 µM (active) | EC50 [2]: 49.6 µM (active) | EC50 (H4): 55.7 µM (active)

C/C=C/c1ccc([C@@H]2[C@H]3CNC[C@@H]2N3Cc2cc(F)ccc2F)cc1
AC50 [5]: 4 µM (active)

Cc1c(CCOC(=O)c2cccc([N+](=O)[O-])c2)sc[n+]1CC(=O)c1ccccc1
EC50 [6]: 6.68 µM (active)

O=C(/C=C/c1ccc(S(=O)(=O)NCc2ccco2)cc1)NCc1ccccc1Cl
EC50 [3]: > 120 µM (not active) | EC50 [2]: > 120 µM (not active) | EC50 (H4): 16.4 µM (active)

CC1(c2ccccc2)CC(C)(C)N(C(=O)C2CCCO2)c2ccccc21 (stereo not drawn)
EC50 [6]: 3.76 µM (active)

C[C@H]1CCCCO[C@@H](CN(C)C(=O)c2ccccc2)[C@@H](C)CN([C@@H](C)CO)C(=O)c2cc(NC(=O)Nc3ccc(C(F)(F)F)cc3)ccc2O1
AC50 (Paired box protein Pax-8): 3.76 µM (active)

CCc1nnc(NC(=O)CSc2nc3c(cc2C#N)CCC3)s1
EC50 [2]: 0.131 µM (active) | EC50 (H4): > 120 µM (not active)

CC(=O)Oc1ccc(-c2cc3c(OC(C)=O)cc(OC(C)=O)cc3oc2=O)cc1
EC50 [8]: > 112 µM (not active) | EC50 [9]: 13.7 µM (active)

COc1ccc(C(=O)NC2CCSc3ccccc32)cc1 (stereo not drawn)
EC50 [8]: > 112 µM (not active) | EC50 [9]: > 112 µM (not active)

OC[C@@H]1Nc2ccc(C3=CCCCC3)cc2[C@@H]2[C@H]1CCN2Cc1nccs1
AC50 [5]: 6.24 µM (active)

O=C(NCCCn1ccnc1)C(=O)NCC(c1ccco1)N1CCN(c2ccccc2)CC1 (stereo not drawn)
AC50 [1]: 3.74 µM (active)

COc1cc(/C=N/n2c(C)nnc2S)ccc1OCc1ccccc1
AC50 [1]: 0.861 µM (active)

O=C(N/N=C/c1cc(Cl)ccc1O)C(=O)Nc1ccccc1OC(F)(F)C(F)F
AC50 [4]: 2.35 µM (active) | AC50 (INS1): 2.7 µM (active)

Cc1cc(C)c2nc(O)c(CN(Cc3cccnc3)C(S)=NCCCN(C)C)cc2c1
EC50 [6]: 2.37 µM (active)

COc1cc(C2NCC(c3ccc(Cl)cc3Cl)c3c2[nH]c2ccccc32)cc(OC)c1OC (stereo not drawn)
AC50 [4]: 3.7 µM (active)

COc1ccccc1-c1ccc2c(c1)O[C@H](CN(C)Cc1ccc3c(c1)OCO3)[C@H](C)CN([C@@H](C)CO)S2(=O)=O
AC50 (Paired box protein Pax-8): 13.5 µM (active)

O=C(C1CCCCC1)N1CC(=O)N2[C@H](CO)[C@@H](c3ccc(C#CCc4ccccc4)cc3)[C@@H]2C1
AC50 [5]: 5.61 µM (active)

O=C(NCc1ccccc1)/C(NC(=O)c1ccccc1)=C(/Sc1ccccn1)c1ccccc1
EC50 [8]: > 112 µM (not active) | EC50 [9]: > 112 µM (not active)

COC(=O)Cc1c(C)c2ccc(OCC(=O)N3CCC(C)CC3)c(C)c2oc1=O
EC50 [8]: > 112 µM (not active) | EC50 [9]: 22.1 µM (active)

CCOC(=O)C1(Cc2ccccc2)CCN(Cc2ccc(C)s2)CC1
EC50 [6]: 0.133 µM (active)

O=C(CNC(=O)c1cn2ccccc2n1)Nc1ccc(F)c(F)c1
EC50 [3]: 0.453 µM (active) | EC50 [2]: 45.5 µM (active) | EC50 (H4): > 120 µM (not active)

Cc1ccc(C2NNC(=O)C2NC(=O)c2ccccc2)cc1 (stereo not drawn)
EC50 [3]: 11.3 µM (active) | EC50 [2]: 9.08 µM (active) | EC50 (H4): 48.6 µM (active)

N#C[C@@H]1[C@H](c2ccccc2-c2cccc(F)c2)[C@H](CO)N1C(=O)C1CCCC1
AC50 [5]: 2.8 µM (active)

CN(C)C(=O)CN1C(=O)C2CC=C(Cl)CC2C1=O (stereo not drawn)
EC50 [8]: > 112 µM (not active) | EC50 [9]: > 112 µM (not active)

CC(C)N=C(S)N1CCN(C/C=C/c2ccccc2)CC1
EC50 [6]: 4.73 µM (active)

CC1=NN(C(C#N)c2cccc([N+](=O)[O-])c2)C(C)(C)C1 (stereo not drawn)
EC50 [8]: > 112 µM (not active) | EC50 [9]: > 112 µM (not active)
